# Tests used:
# [1] = system: plasma cortisol; experiment: Pharmacodynamics: acute increase in plasma cortisol; type: in vivo, human
# Excerpt: Background: Compounds that acutely elevate brain 5-HTExt can activate the hypothalamic pituitary adrenal axis and induce the release of cortisol from the adrenals into the plasma (Attenburrow et al, 2001; Demisch et al, 1986; Guan et al, 2020; Kapitany et al, 1999; Lowe et al, 2006; Meltzer et al, 1983; Sargent et al, 1998). Generally large, acute increases in brain 5-HTExt are required to increase cortisol and the effect desensitizes rapidly with prolonged serotonin elevation (Mashchak et al, 1983).
# Method: Total plasma cortisol levels (expressed in μg/dL) were quantified using standard immunoassay methodology. Total plasma cortisol levels were measured at multiple time points during the 24 hr infusion period of 5-HTP solution for IV infusion or placebo. Total plasma cortisol levels were measured at baseline (T=0) before the start of infusion. Blood samples were collected at T=0, and at pre-specified timepoints following initiation of infusion (2, 4, 6, 8, 10, 12, 14, 22, 24 hr). The pharmacodynamic population included subjects who received IV 5-HTP and completed the 24 h infusion or placebo and who had escitalopram levels above the lower limit of quantitation.
# Statistics: Changes from baseline value were calculated for each time point using descriptive statistics (n, arithmetic mean, SD, CV). A comparison between active treatment and placebo was made for each time point and cohort using ANOVA with Dunnett's post-hoc correction of the p-value to account for multiple testing. Significance was set at p<0.05. Statistical analysis was executed using SAS software Version 9.4,
# [2] = Solubility of 5-HTP; type: physicochemical; settings: water, read-out: aqueous solubility
# Experimental: The aqueous solubility of 5-HTP is approximately 10 mg/ml. However, 5-HTP has been reported to be soluble to up to about 100 mg/ml in some solvents (Jacobsen et al, 2016a). In some embodiments, the concentration of 5-HTP in the infusion solutions (i.e., the infusate fluids) is between about 1 mg/ml and about 10 mg/ml. In some embodiments, the concentration is between about 0.1 mg/ml and about 1 mg/ml. In some embodiments, the concentration is between about 10 mg/ml and about 100 mg/ml.
compound,measurement,setting,value
"N[C@@H](Cc1c[nH]c2ccc(O)cc12)C(=O)O [5-HTP, 5-hydroxytryptophan]",plasma cortisol levels relative to placebo,"[1]; constant flow rate 1 mg/kg/24 hr, 2 hr after start of infusion, p<0.01",significantly higher
same,plasma cortisol levels relative to placebo,"[1]; constant flow rate 3 mg/kg/24 hr, 2 hr after start of infusion, p<0.005",significantly higher
same,plasma cortisol levels relative to placebo,"[1]; constant flow rate 3 mg/kg/24 hr, throughout the 24 hr infusion, except at the 24 hr time point",remained significantly higher
same,increase of plasma cortisol levels relative to placebo,"[1]; ramp flow rate 1 mg/kg/24 hr, 14 hr, trend, p=0.0751",not statistically significant
same,plasma cortisol levels relative to placebo,"[1]; ramp flow rate 2 mg/kg/24 hr, 14 hr after start of infusion, p<0.05",significantly higher
same,plasma cortisol levels relative to placebo,"[1]; ramp flow rate 3 mg/kg/24 hr, 14 hr after start of infusion, p<0.0001",significantly higher
same,solubility,[2],~10000 µg/mL

# Reference: US11779567B2, “Method for optimizing 5-hydroxytryptamine function in the brain for therapeutic purposes” (Evecxia Therapeutics, Inc., priority 2021, dated 2023)
